Data as given in US11649237B2, “Substituted imidazo[1,5-a]pyrazines for IRE1 inhibition” (Optikira LLC, priority 2017, dated 2023).

Each molecule was assayed on XBP-1 splicing in ARPE-19 cells or apoptosis of INS-1 cells expressing mIRE-1 (assay: Cellular assay (XBP1 splicing assay or apoptosis assay)). Conditions: data are for the XBP1 splicing assay or the apoptosis assay (not specified per compound).
Type: cell-based
Experimental: ARPE-19 cells stably expressing XBP-1 (a.a. 1-376) with nano-luciferase gene sequence linked so it is in frame when XBP-1 is spliced, were cultured in F12 media, 10% FBS, 0.044% sodium bicarbonate, 150 μg/ml hygromycin B and seeded for assays at 5,000 cells in 384 well plates in culture media without hygromycin B and incubated at 37° C./5% CO2. […] After further incubation of 30 minutes thapsigargin was added (final concentration 150 nM) and then another 4 hour incubation. A NanoLuc luciferase assay (Promega) was used according to the manufacturer's instructions to detect the luciferase and luminescence measured on a luminometer (EnVision, PerkinElmer).
Doxycycline (final concentration 100 nM) was added and plates incubated for a further 72 hours. To determine the proportion of apoptotic cells Hoechst 33342 (final concentration 10 μg/mL) was added, then after 30 minutes incubation cells imaged and analyzed on an InCell high content imager.

SMILES | IC50 [nM]
CCc1nc(-c2ccc(NC(=O)Nc3cccc(C(F)(F)F)c3)c3ccccc23)c2c(N)ncc(CN3CCNCC3)n12 [Example 20, 3-{4-[8-amino-3-ethyl-5-(piperazin-1-ylmethyl)imidazo[1,5-a]pyrazin-1-yl]naphthalen-1-yl}-1-[3-(trifluoromethyl)phenyl]urea] | 470
CC(C)c1nc(-c2ccc(NS(=O)(=O)Cc3ccccc3Cl)c(F)c2)c2c(N)ncc(CN3CCNCC3)n12 [Example 36, N-(4-(8-amino-3-isopropyl-5-(piperazin-1-ylmethyl)imidazo[1,5-a]pyrazin-1-yl)-2-fluorophenyl)-1-(2-chlorophenyl)methanesulfonamide] | 1530
Cc1cccc2nc(Cc3ccc(-c4nc(C(C)C)n5c(CN6CCNCC6)cnc(N)c45)c4ccccc34)[nH]c12 [Example 37, 3-isopropyl-1-(4-((7-methyl-1H-benzo[d]imidazol-2-yl)methyl)naphthalen-1-yl)-5-(piperazin-1-ylmethyl)imidazo[1,5-a]pyrazin-8-amine] | 320
Cc1nc(-c2ccc(NC(=O)Nc3cccc(C(F)(F)F)c3)c3ccccc23)c2c(N)ncc(C3CCCNC3)n12 (centres unmarked) [Example 40, 3-{4-[8-amino-3-methyl-5-(piperidin-3-yl)imidazo[1,5-a]pyrazin-1-yl]naphthalen-1-yl}-1-[3-(trifluoromethyl)phenyl]urea] | 280
CNC1CC=C(c2cnc(N)c3c(-c4ccc(CC(=O)Nc5cc(F)cc(C#N)c5)c5ccccc45)nc(C(C)C)n23)CC1 (centres unmarked) [Example 67, 2-(4-(8-amino-3-isopropyl-5-(4-(methylamino)cyclohex-1-en-1-yl)imidazo[1,5-a]pyrazin-1-yl)naphthalen-1-yl)-N-(3-cyano-5-fluorophenyl)acetamide] | 210
CNC1CC=C(c2cnc(N)c3c(-c4ccc(CC(=O)Nc5ccccn5)c5ccccc45)nc(C(C)C)n23)CC1 (centres unmarked) [Example 68, 2-(4-(8-amino-3-isopropyl-5-(4-(methylamino)cyclohex-1-en-1-yl)imidazo[1,5-a]pyrazin-1-yl)naphthalen-1-yl)-N-(pyridin-2-yl)acetamide] | 430
CNC1CC=C(c2cnc(N)c3c(-c4ccc(CC(=O)Nc5cncc(OC)c5)c5ccccc45)nc(C(C)C)n23)CC1 (centres unmarked) [Example 69, 2-(4-(8-amino-3-isopropyl-5-(4-(methylamino)cyclohex-1-en-1-yl)imidazo[1,5-a]pyrazin-1-yl)naphthalen-1-yl)-N-(5-methoxypyridin-3-yl)acetamide] | 350
CNC1CC=C(c2cnc(N)c3c(-c4ccc(CC(=O)Nc5cccc(C#N)c5)c5ccccc45)nc(C(C)C)n23)CC1 (centres unmarked) [Example 70, 2-(4-(8-amino-3-isopropyl-5-(4-(methylamino)cyclohex-1-en-1-yl)imidazo[1,5-a]pyrazin-1-yl)naphthalen-1-yl)-N-(3-cyanophenyl)acetamide] | 140
CNC1CC=C(c2cnc(N)c3c(-c4ccc(CC(=O)Nc5cccc(OC)c5)c5ccccc45)nc(C(C)C)n23)CC1 (centres unmarked) [Example 71, 2-(4-(8-amino-3-isopropyl-5-(4-(methylamino)cyclohex-1-en-1-yl)imidazo[1,5-a]pyrazin-1-yl)naphthalen-1-yl)-N-(3-methoxyphenyl)acetamide] | 62
CNC1CC=C(c2cnc(N)c3c(-c4cccc5c(CC(=O)Nc6cccc(F)c6)cccc45)nc(C(C)C)n23)CC1 (centres unmarked) [Example 81, 2-(5-(8-amino-3-isopropyl-5-(4-(methylamino)cyclohex-1-en-1-yl)imidazo[1,5-a]pyrazin-1-yl)naphthalen-1-yl)-N-(3-fluorophenyl)acetamide] | 290
CNC1CC=C(c2cnc(N)c3c(-c4cccc5c(CC(=O)Nc6ccccc6)cccc45)nc(C(C)C)n23)CC1 (centres unmarked) [Example 82, 2-(5-(8-amino-3-isopropyl-5-(4-(methylamino)cyclohex-1-en-1-yl)imidazo[1,5-a]pyrazin-1-yl)naphthalen-1-yl)-N-phenylacetamide] | 400
